We go through one compound from US20220175917A1, “COMBINATION OF IAP INHIBITOR AND IMMUNE CHECKPOINT INHIBITOR” (CHIA TAI TIANQING PHARMACEUTICAL GROUP CO., LTD., priority 2019, published 2022).

The subject of assay [1] is mouse triple-negative breast cancer EMT6 cell line. Description: In-vivo drug efficacy study 1: EMT6 transplanted BALB/c mouse model, tumor volume. The conditions noted are these: for Tumor volume Day 0: Day 0 (start of dosing). The procedure: To evaluate the tumor immunotherapeutic effect of test drugs in the mouse triple-negative breast cancer EMT6 cell line (EMT6 is from ATCC, cell No.: CRL-2755) transplanted BALB/c mouse model.
BALB/c mice, female, 6-7 weeks old, weighing about 19.1-22.6 g, were housed in separated ventilated boxes with constant temperature and humidity. The feeding room was under the following conditions: temperature: 20-26° C., humidity: 40-70%, ventilation: 10-20 times/h, and light/dark cycle: 12 h/12 h. The Co-60 radiation-sterilized complete pellet feed for mice was supplied continuously and can be taken freely without limitation, and the drinking tap water (used after autoclaving) was supplied continuously by the water bottle and can be taken freely. A total of 144 mice purchased from Shanghai Lingchang Biotechnology Co., Ltd. were used for the study. The BALB/c mice were inoculated with EMT6 cells subcutaneously to establish murine breast cancer models with subcutaneously-transplanted tumors. The mice were administered when the mean tumor volume reached about 97.3 mm^3. The test compounds were administered orally once every 3 days at a dose of 50 mg/kg. PD1 mAb (from BioXcell, cat No.: BP0146, batch No.: 695318A1B, clone No.: RMP1-14) was administered intraperitoneally once every 3 days at a dose of 10 mg/kg. Tumor volume was measured every 3 days with a two-dimensional caliper, and the volume was measured in mm^3 and calculated according to the following formula: V=0.5 a×b^2, where a and b are the long and short diameters, respectively, of the tumor. Anti-tumor efficacy was determined by dividing the mean tumor increase volume of compound-treated animals by the mean tumor increase volume of untreated animals.

The test system of assay [2] is mouse colon cancer MC38 cell line. Description: In vivo efficacy study 2: MC38 transplanted BALB/c mouse model, tumor volume. Conditions: combination Example 2 50 mg/kg orally twice a week + Anti-PD1 10 mg/kg intravenously once a week, MC38, BALB/c mice. From the text: To evaluate the tumor immunotherapeutic effect of test drugs in the mouse colon cancer MC38 cell line (from Obio Technology (Shanghai) Co., Ltd.) transplanted BALB/c mouse model.
BALB/c mice, female, 6-7 weeks old, weighing about 18-22 g, were kept in a special pathogen-free environment and in separated ventilated cages (3-5 mice per cage). All cages, bedding and water were disinfected prior to use. All animals had free access to standard certified commercial laboratory diets. A total of 48 mice purchased from Shanghai Slac Laboratory Animal Co., Ltd. were enrolled. Each mouse was implanted subcutaneously in the right flank with mouse colon cancer MC38 cells (2×10^5 cells in 0.1 mL of phosphate buffered saline) for tumor growth. The mice were administered when the mean tumor volume reached about 70 mm^3. Test compounds were administered orally twice a week (morning and afternoon) at a dose of 50 mg/kg; PD-1 antibody (from BioXcell, cat. No.: BP0146, batch No.: 640517M2B) was administered intravenously once a week at a dose of 10 mg/kg. Tumor volume was measured […] with a two-dimensional caliper, and the volume was measured in mm^3 and calculated according to the following formula: V=0.5 a×b^2, where a and b are the long and short diameters, respectively, of the tumor. Anti-tumor efficacy was determined by dividing the mean tumor increase volume of compound-treated animals by the mean tumor increase volume of untreated animals.

Setting [3] is: Example 2 alone, 50 mg/kg orally once every 3 days, EMT6 subcutaneous, BALB/c mice.
Setting [4] is: combination Example 2 50 mg/kg orally + Anti-PD1 10 mg/kg intraperitoneally, each once every 3 days, EMT6, BALB/c mice.

The structures appear in SMILES notation.

For the compound `CN[C@@H](C)C(=O)N[C@H](C(=O)N1CCC[C@H]1Cn1cc(C(C)=O)c2cc(Cl)ccc21)C1CCCCC1` [Example 2], in assay [1] (setting [3]), the “Tumor volume Day 0” value was 97.3 mm^3, the “Tumor volume Day 7” value turned out to be 355.5 mm^3, the “Tumor volume Day 14” value is 1097.7 mm^3 and the “Tumor volume Day 25” value is recorded as 2225.8 mm^3. Also, in assay [1] (setting [4]), the “Tumor volume Day 0” value worked out at 97.3 mm^3, the “Tumor volume Day 7” value is given as 332.4 mm^3, the “Tumor volume Day 14” value was 174.2 mm^3 and the “Tumor volume Day 25” value turned out to be 31.5 mm^3. The “Tumor volume Day 0” value in assay [2] (Day 0 (start of dosing)) is listed as 51.6 mm^3. The “Tumor volume Day 5” value in assay [2] (Day 5) is 140.7 mm^3. Also, in assay [2] (Day 12), the “Tumor volume Day 12” value is listed as 215.5 mm^3. Besides, the “Tumor volume Day 20” value in assay [2] (Day 20) was 427.1 mm^3.
